From PMC7221892, “In Vitro and in Vivo Activity of mTOR Kinase and PI3K Inhibitors Against Leishmania donovani and Trypanosoma brucei” (Molecules, 2020)
“And” between values parts separate entries of the source, which are not always exact repeats. Equal values may be shown once.

What was measured:
[1] = system: intracellular L. donovani; assay: Pilot high-content screening against intracellular L. donovani at 10 μM; format: cell-based; conditions: screening concentration 10 µM
Procedure: (§1) PMA-treated THP-1 human monocytic cells were seeded at 0.8 × 10^4 cells per well in a 384-well culture plate (Greiner Bio-One, Kremsmünster, Austria) in RPMI-1640 complete medium supplemented with 10% FBS. After 48 h of incubation at 37 °C in the presence of 5% CO2, the promastigotes of L. donovani that were incubated with lectin for 30 min at 28 °C were added to the cells at a parasite to cell ratio of 20:1. […] The negative control consisted of THP-1 infected with the parasite with only 0.5% DMSO. After 72 h, the cells that were infected and treated with the drug were washed with serum-free RPMI-1640 medium. The cells and parasites were stained using 5 μM DRAQ5 and 4% PFA. The images were acquired based on reading using an Operetta® automated microscope (PerkinElmer, Inc., Waltham, MA 02451 USA). They were further analyzed using Columbus^TM (PerkinElmer, Inc. Waltham, MA, USA) software to quantify parasite numbers, host cell numbers, and infection ratios. In brief, large-sized nucleus of host cells was first detected using Draq-5 (Thermo Fisher, Rockford, IL, USA) signal and the host cell boundary masking was performed using the low-intensity signals from cytosols (additional feature of Draq-5). Then the small-sized nucleus signal by Draq-5 was used to identify parasites within the area of masked host cell. Infection ratio (IR) was determined with the value of the number of infected cells divided by total number of cells and the average number of parasites per macrophage (P/φ) was defined by the value of the number of parasites divided by the number of infected cells in the acquired image. The average IR value of the negative control wells was calculated as 0.53. Compounds selected based on the screening results were further assessed in a dose-dilution manner (two-fold serial dilution for 20 points starting from 100 μM) using the same method.

[2] = system: THP-1 cells; assay: Host cell viability in pilot screening at 10 μM; format: cell-based, human; conditions: screening concentration 10 µM
Procedure: as §1, with “Infection ratio (IR) was determined with the value of the number of infected cells divided by total number of cells and the average number of parasites per macrophage (P/φ) was defined by the value of the number of parasites divided by the number of infected cells in the acquired image.” left out, “Compounds selected based on the screening results were further assessed in a dose-dilution manner (two-fold serial dilution for 20 points starting from 100 μM) using the same method.” left out

[3] = system: T. b. brucei Lister 427; assay: HAT mouse model (acute T. b. brucei Lister 427 infection of BALB/c mice); format: in vivo; conditions: for parasitemia in T. brucei-infected mice: five consecutive days of treatment, Torin2 15 mg/kg, NVP-BGT226 5 mg/kg
Procedure: BALB/c mice were infected with T. b. brucei Lister 427 (4 × 10^4 cells) by intraperitoneal (i.p.) injection. […] Parasitemia was evaluated daily for 2 weeks by blood collection from the mouse tail vein, and survival was monitored for 1 month. Mice showing impaired health status and/or with a parasite load > 10^8 cells per mL of blood were euthanized.

[4] = system: intracellular L. donovani; assay: Intracellular L. donovani in THP-1 cells, dose-dilution high-content imaging assay; format: cell-based; conditions: for EC50: Leishmania donovani, THP-1 cells infected with L. donovani, 72 h, duplicate measurements, read-out: Intracellular L. donovani EC50 ± SD
Procedure: as §1, with “image.” for “image. The average IR value of the negative control wells was calculated as 0.53. Compounds selected based on the screening results were further assessed in a dose-dilution manner (two-fold serial dilution for 20 points starting from 100 μM) using the same method.”
(§2) All of the half maximal effective concentrations (EC50) and the half maximal cytotoxic concentrations (CC50) values were calculated using two independent experiments. The dose-response curves were fitted using GraphPad Prism 6 software (GraphPad Software, San Diego, CA, USA) by using a sigmoidal dose-response equation with a variable hill slope option.

[5] = Pilot toxicity study in mice; format: in vivo; conditions: 5 mg/kg dose
Procedure: For this proof of concept in vivo study, L. donovani infected BALB/c model was used to evaluate the ability of compound to reduce parasites in liver. […] Using the same dosing scheme, the efficacies of the compounds were evaluated in VL mouse model.

[6] = system: L. donovani promastigotes; assay: L. donovani promastigote growth inhibition (resazurin); format: cell-based; conditions: Leishmania donovani, 72 h, 3 days exposure, read-out: L. donovani Promastigote EC50 ± SD
Procedure: (§3) L. donovani promastigote and T. b. brucei Lister 427 BSF growth inhibition were assayed by measuring the conversion of resazurin to resorufin. The assays were performed in 384-well plates that were seeded with L. donovani promastigotes or T. brucei 427 BSF (5 × 10^4 cells per well). After seeding, the parasites were exposed to the compounds for 3 days. Resazurin sodium salt (200 μM; R7017; Sigma-Aldrich, St. Louis, MO, USA) was then added, and the samples were incubated for 5 h. After incubation, the parasites were fixed using 4% paraformaldehyde, and the plates were analyzed using a Victor3^TM plate reader (PerkinElmer, Inc., Waltham, MA, USA) at 590 nm (emission) and 530 nm (excitation). […] Pentamidine was used for the T. b. brucei Lister 427 BSF growth inhibition assay.
as §2

[7] = Host cell cytotoxicity (CC50) in infected THP-1 cells, dose-dilution assay; format: cell-based; conditions: human, infected THP-1 host cells, read-out: THP-1 Cell CC50 ± SD
Procedure: as §1, with “image.” for “image. The average IR value of the negative control wells was calculated as 0.53. Compounds selected based on the screening results were further assessed in a dose-dilution manner (two-fold serial dilution for 20 points starting from 100 μM) using the same method.”
as §2

[8] = system: L. donovani; assay: VL mouse model (L. donovani-infected BALB/c mice); format: in vivo; conditions: miltefosine 30, Torin2 15, dactolisib 50, NVP-BGT226 5 mg/kg; for Inhibition of L. donovani In Vivo (%) (Mean ± SD): liver parasite burden vs vehicle, per os 5 days; for LDU in the Liver (Mean ± SD): once daily per os for 5 days from day 7 post-infection
Procedure: The highest dose for each compound without showing adverse effects was selected based on literature search. The vehicle for the compounds was 5% N-methylpyrrolidone, 15% polyvinylpyrrolidone, and 80% deionized water. Drug dosing solutions were freshly prepared each day. All drugs were administered once daily for 5 days via the per os route. On day 16 post-infection, all animals were humanely euthanized and assessed microscopically using Giemsa-stained liver imprints. Parasite burdens were measured by counting (blinded to treatment) the number of amastigotes per 1000 cell nuclei and multiplying this number by the liver weight (mg) (Leishman-Donovan Unit: LDU). The LDU values for the drug-treated samples were compared to those of the untreated samples, and the percent inhibition values were calculated.

[9] = system: T. b. brucei Lister 427 BSF; assay: T. b. brucei Lister 427 bloodstream form growth inhibition (resazurin); format: cell-based; conditions: Trypanosoma brucei, 72 h, 3 days exposure, read-out: T. brucei Lister 427 BSF EC50 ± SD
Procedure: as §3, §2

| Structure (SMILES) | inhibition of intracellular parasite survival in screening [1] | toxicity against the host cell in screening [2] | mice surviving during 14 days post-infection ([3]; 5 mg/kg per os for 5 days) [%] | mice surviving more than 25 days without parasitemia ([3]; 5 mg/kg per os for 5 days) [%] | delay in survival over the Torin2-treated group ([3]; NVP-BGT226 5 mg/kg vs Torin2 15 mg/kg) [days] | parasitemia in T. brucei-infected mice [3] | EC50 [4] [nM] | Selectivity Index (SI) ([4]; SI = THP-1 CC50/Intracellular L. donovani EC50) | toxicity in vivo [5] | EC50 [6] [nM] | CC50 at 72 h [7] [nM] | Inhibition of L. donovani In Vivo (%) (Mean ± SD) ([8]; 5 mg/kg) | LDU in the Liver (Mean ± SD) [8] [LDU] | EC50 [9] [nM] | mice surviving at least 13 days after infection ([3]; 15 mg/kg per os for 5 days) [%] | Inhibition of L. donovani In Vivo (%) (Mean ± SD) [8] |
| --- | --- | --- | --- | --- | --- | --- | --- | --- | --- | --- | --- | --- | --- | --- | --- | --- |
| COc1ncc(-c2ccc3nccc(-c4ccnnc4)c3c2)cc1NS(=O)(=O)c1ccc(F)cc1F [GSK2126458] | found active | some toxicity against the host cell | – | – | – | – | – | – | – | – | – | – | – | – | – | – |
| COc1ccc(-c2ccc3ncc4c(c3c2)n(-c2ccc(N3CCNCC3)c(C(F)(F)F)c2)c(=O)n4C)cn1 [NVP-BGT226] | – | – | 80 | 20 | 1 to 2 | reduced to under the limits of detection | 140 ± 20 | 19 | no sign of toxicity was observed | 9 ± 1 | 2660 ± 460 | 54% and 54 ± 3.18% | 516 ± 36 | 0.054 ± 0.003 | – | – |
| Nc1ccc(-c2ccc3ncc4ccc(=O)n(-c5cccc(C(F)(F)F)c5)c4c3c2)cn1 [Torin2, 9-(6-Aminopyridin-3-yl)-1-(3-(trifluoromethyl)phenyl)benzo[h][1,6]naphthyridin-2(1H)-one] | – | – | – | – | – | parasitemia was observed still by day 5 | 250 ± 30 | – | – | 30 ± 4 | – | – | 735 ± 66 | 110 ± 10 | 80 | 35% and 35 ± 5.81% |
